Test [1] deals with T1, Serine/threonine-protein kinase Chk1 (Homo sapiens, UniProt O14757).
T1 sequence (O14757 whole entry): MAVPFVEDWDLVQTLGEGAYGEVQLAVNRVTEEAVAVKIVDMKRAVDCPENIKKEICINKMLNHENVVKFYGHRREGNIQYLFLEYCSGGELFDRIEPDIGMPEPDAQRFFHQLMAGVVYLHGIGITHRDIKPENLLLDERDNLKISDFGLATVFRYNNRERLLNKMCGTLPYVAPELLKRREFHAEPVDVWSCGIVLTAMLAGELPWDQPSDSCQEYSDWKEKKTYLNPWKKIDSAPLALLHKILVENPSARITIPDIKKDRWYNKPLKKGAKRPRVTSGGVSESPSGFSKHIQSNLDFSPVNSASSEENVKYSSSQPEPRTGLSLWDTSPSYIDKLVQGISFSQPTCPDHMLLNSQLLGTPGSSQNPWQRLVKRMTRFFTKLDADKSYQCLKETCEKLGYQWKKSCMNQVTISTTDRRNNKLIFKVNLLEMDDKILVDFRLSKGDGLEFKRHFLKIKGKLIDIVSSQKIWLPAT
Put plainly: Inhibition of Chk1.

Test [2] deals with T2, Aurora kinase B (Homo sapiens, UniProt Q96GD4). The test can be described thus: Inhibition of aurora B kinase in human HCT116 cells assessed as inhibition of histone H3 phosphorylation incubated for 1 hr by Hoechst 33342 staining based microscopic analysis. The test is classed as cell-based, HCT-116.
Test [3] addresses T2, Aurora kinase B. The test can be described thus: Inhibition of aurora B kinase using 5TAMRA-GRTGRRNSICOOH as substrate by fluorescent assay.
Test [4] deals with Tyrosine-protein kinase Lck (Homo sapiens, UniProt P06239). The test can be described thus: Inhibition of LCK.
The target in the next test is T3, Aurora kinase A (Homo sapiens, UniProt O14965).
T3 sequence (O14965 whole entry): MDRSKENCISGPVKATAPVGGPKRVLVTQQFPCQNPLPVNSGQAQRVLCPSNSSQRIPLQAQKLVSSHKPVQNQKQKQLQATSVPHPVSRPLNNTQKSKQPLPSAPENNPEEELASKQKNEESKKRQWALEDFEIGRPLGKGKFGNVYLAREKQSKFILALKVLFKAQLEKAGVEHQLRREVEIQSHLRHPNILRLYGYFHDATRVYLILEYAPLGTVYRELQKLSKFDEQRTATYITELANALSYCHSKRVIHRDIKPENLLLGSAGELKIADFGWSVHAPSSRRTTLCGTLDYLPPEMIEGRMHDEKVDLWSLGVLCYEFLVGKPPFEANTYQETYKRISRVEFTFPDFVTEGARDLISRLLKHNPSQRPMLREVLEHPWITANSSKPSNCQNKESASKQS
The test can be described thus: Inhibition of aurora A kinase using 5TAMRA-GRTGRRNSICOOH as substrate by fluorescent assay.

For test [5], the target named is T4, Interleukin-1 receptor-associated kinase 4 (Homo sapiens, UniProt Q9NWZ3).
T4 sequence (Q9NWZ3 whole entry): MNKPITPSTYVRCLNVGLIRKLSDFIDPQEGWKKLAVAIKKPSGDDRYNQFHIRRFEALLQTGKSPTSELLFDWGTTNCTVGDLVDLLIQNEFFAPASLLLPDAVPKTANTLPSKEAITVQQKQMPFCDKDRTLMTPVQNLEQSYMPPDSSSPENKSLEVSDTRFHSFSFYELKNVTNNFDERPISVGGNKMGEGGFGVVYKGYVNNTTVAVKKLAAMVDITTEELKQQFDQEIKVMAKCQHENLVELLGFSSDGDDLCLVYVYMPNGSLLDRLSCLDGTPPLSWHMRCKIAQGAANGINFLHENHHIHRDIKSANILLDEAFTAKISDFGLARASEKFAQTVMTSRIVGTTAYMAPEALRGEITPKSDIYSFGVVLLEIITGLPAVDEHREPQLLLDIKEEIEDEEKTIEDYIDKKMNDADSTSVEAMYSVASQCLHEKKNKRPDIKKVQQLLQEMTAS
Put plainly: Inhibition of IRAK4.

In test [6] the target is Vascular endothelial growth factor receptor 2 (Homo sapiens, UniProt P35968). Put plainly: Inhibition of VEGFR2.
The target in test [7] is Ribosomal protein S6 kinase alpha-3 (Homo sapiens, UniProt P51812). The test can be described thus: Inhibition of RSK2.

This note sets out measurements from ChEMBL document CHEMBL2021851, “Synthesis and SAR studies of imidazo-[1,2-a]-pyrazine Aurora kinase inhibitors with improved off-target kinase selectivity” (Bioorg Med Chem Lett, 2012).

pEC50, pIC50: −log10 of the molar value.

T2 sequence (Q96GD4 whole entry): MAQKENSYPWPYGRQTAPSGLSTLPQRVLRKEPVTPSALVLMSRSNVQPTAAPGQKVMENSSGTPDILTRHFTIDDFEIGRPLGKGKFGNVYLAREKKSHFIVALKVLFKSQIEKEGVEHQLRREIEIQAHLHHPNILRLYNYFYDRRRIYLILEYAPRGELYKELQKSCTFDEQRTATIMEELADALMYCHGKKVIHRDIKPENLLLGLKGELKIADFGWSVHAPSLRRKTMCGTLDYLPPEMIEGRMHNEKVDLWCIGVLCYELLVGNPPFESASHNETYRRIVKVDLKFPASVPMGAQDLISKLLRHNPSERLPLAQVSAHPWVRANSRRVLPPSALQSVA
Chain of Vascular endothelial growth factor receptor 2 (P35968 whole entry): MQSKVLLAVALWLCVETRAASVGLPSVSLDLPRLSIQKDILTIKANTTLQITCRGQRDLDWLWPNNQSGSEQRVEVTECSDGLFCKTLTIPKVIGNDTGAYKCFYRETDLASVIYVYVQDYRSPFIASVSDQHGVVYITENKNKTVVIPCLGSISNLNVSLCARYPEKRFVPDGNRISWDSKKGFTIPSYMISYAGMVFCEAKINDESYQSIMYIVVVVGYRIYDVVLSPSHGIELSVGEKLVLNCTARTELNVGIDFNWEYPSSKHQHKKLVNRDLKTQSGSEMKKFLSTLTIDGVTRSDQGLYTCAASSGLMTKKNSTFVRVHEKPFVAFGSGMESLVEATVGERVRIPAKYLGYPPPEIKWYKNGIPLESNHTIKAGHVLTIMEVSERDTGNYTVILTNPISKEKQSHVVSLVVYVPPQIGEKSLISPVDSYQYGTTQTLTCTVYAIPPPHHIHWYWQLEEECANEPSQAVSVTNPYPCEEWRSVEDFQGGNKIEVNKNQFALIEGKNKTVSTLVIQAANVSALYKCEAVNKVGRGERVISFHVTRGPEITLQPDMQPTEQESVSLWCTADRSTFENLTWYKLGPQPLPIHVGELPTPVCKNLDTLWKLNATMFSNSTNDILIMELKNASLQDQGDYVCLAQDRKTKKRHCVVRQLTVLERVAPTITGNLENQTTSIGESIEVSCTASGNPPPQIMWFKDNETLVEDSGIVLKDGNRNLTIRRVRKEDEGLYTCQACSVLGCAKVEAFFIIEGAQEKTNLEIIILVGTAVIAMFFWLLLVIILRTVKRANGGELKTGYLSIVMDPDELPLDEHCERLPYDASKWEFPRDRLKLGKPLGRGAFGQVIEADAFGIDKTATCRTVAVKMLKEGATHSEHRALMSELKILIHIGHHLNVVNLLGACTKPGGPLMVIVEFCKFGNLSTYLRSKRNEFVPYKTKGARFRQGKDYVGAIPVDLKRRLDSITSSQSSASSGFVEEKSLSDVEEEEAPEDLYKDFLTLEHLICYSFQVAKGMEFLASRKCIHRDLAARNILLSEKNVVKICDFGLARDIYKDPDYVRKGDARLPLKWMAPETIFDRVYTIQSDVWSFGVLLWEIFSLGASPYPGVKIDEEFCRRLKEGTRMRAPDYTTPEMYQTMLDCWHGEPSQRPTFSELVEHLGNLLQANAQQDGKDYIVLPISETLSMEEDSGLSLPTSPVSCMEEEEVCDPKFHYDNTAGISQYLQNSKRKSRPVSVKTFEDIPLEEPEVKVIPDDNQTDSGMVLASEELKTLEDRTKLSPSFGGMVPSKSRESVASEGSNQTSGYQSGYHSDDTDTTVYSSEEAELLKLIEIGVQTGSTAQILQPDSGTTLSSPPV
Chain of Ribosomal protein S6 kinase alpha-3 (P51812 whole entry): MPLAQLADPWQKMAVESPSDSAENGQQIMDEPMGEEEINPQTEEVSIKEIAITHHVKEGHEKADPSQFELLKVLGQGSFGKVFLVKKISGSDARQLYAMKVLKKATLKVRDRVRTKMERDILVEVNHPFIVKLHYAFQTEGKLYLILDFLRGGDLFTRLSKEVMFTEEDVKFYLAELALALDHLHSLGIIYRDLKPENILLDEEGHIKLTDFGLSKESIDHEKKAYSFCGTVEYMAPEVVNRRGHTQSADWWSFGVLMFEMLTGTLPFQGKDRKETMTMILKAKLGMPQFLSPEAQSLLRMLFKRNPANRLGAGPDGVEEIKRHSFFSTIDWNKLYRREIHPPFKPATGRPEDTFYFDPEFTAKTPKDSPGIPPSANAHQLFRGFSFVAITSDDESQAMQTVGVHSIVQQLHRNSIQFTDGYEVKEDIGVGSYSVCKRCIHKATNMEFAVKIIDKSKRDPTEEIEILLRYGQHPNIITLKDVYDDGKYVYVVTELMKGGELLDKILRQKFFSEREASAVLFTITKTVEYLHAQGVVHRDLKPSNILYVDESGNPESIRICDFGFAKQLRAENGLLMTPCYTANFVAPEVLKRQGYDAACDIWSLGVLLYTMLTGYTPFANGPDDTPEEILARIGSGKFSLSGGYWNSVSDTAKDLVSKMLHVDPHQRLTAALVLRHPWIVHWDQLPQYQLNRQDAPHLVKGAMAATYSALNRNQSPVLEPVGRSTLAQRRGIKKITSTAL
Chain of Tyrosine-protein kinase Lck (P06239 whole entry): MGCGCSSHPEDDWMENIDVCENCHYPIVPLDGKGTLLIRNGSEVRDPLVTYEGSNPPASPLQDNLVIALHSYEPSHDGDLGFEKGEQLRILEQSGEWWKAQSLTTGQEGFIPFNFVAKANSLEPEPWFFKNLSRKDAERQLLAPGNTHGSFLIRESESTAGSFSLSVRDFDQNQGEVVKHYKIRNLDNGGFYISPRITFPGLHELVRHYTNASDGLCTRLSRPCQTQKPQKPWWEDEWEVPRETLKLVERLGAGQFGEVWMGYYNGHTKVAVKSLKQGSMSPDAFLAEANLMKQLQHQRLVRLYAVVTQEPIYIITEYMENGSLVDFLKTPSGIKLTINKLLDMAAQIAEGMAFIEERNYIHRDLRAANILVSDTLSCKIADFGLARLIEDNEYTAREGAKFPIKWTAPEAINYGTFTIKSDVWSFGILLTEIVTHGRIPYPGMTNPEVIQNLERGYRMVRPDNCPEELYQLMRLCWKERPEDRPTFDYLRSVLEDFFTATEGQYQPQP

Usually pIC50 stands for −log10 of the IC50, conventionally taken in molar units. A low value points to a high IC50. As a reminder, the pEC50 is the EC50 on a negative log10 scale, so that one unit is a factor of ten. In the case of `Cc1cn2c(-c3cn[nH]c3)cnc2c(Nc2cc(CN3CCCCC3)ns2)n1`, the pIC50 in test [1] was 7.70; at Aurora kinase B [3], not below 7.89; in test [4], 7.92; against Aurora kinase A it was not below 8.40; in test [5], 7.25; in test [6], 8.40. Also, the negative logarithm of the IC50 (pIC50) in test [7] is 6.44. Further, the pEC50 on Aurora kinase B [2] was 7.30.

As for `Cc1cn2c(-c3cnn(CC(=O)NCc4cccs4)c3)cnc2c(Nc2cc(CN3CCCC(C)C3)ns2)n1` (stereo not given), the pIC50 is 6.52 in test [1]; not below 7.89 against Aurora kinase B [3]; 6.24 in test [4]; 7.57 at Aurora kinase A; 6.06 in test [5]; 6.63 in test [6]. The pIC50 in test [7] was 5.11. The pEC50 at Aurora kinase B [2] was 6.71.

For the molecule `Cc1cn2c(-c3cnn(CC(=O)Nc4cccc(F)c4F)c3)cnc2c(Nc2cc(CN3CCCCC3)ns2)n1`, the pIC50 was 7.70 in test [1]; not below 7.89 at Aurora kinase B [3]; less than 5.52 in test [4]; 6.91 against Aurora kinase A; 5.85 in test [5]; 6.32 in test [6]. In test [7], the pIC50 is 5.37. The negative logarithm of the EC50 (pEC50) at Aurora kinase B [2] is 7.24.

As for `Cc1cn2c(-c3cnn(CC(=O)Nc4ccncc4)c3)cnc2c(Nc2cc(CN3CCCC(C)C3)ns2)n1` (stereo not given), the negative logarithm of the IC50 (pIC50) in test [1] is 7.00; on Aurora kinase B [3] it was not below 7.89; in test [4], 6.14; on Aurora kinase A, 7.92; in test [5] it was 5.94; in test [6] it was 6.97. The molecule further showed a pIC50 in test [7] of 5.96. Besides, at Aurora kinase B [2], the pEC50 is 7.08.

Take `Cc1cn2c(-c3cnn(CC(=O)Nc4ccncc4F)c3)cnc2c(Nc2cc(CN3CCCC(C)C3)ns2)n1` (stereo not given): the pIC50 is 6.52 in test [1]; not below 7.89 at Aurora kinase B [3]; 6.57 in test [4]; more than 8.40 at Aurora kinase A; 5.91 in test [5]; 6.60 in test [6]. In addition, the negative logarithm of the IC50 (pIC50) in test [7] was 5.17. Moreover, the negative logarithm of the EC50 (pEC50) at Aurora kinase B [2] is 7.21.
